From PMC6104608, “Design, synthesis, and evaluation of curcumin analogues as potential inhibitors of bacterial sialidase” (Journal of Enzyme Inhibition and Medicinal Chemistry, 2018)

What was measured:
S. pneumoniae Nan A [1] = target: T1, S. pneumoniae Nan A (Streptococcus pneumoniae, UniProt P62575); experiment: Fluorescence-based inhibition assay of S. pneumoniae Nan A with MUNANA substrate; type: biochemical; conditions: for IC50: 2.2 nM Nan A, 50 µM substrate, pH 7.5, triplicate, read-out: IC50 against S. pneumoniae Nan A
T1 construct: 6x His-tag (C); made in house; host or cells: E. coli BL21 (DE3)

[2] = target: T2, Vibrio cholerae sialidase (Vibrio cholerae serotype O1, UniProt P0C6E9); experiment: biochemical
T2 construct: purchased Sigma 72197

S. pneumoniae Nan A [3] = target: T1, S. pneumoniae Nan A; experiment: Enzyme kinetic study (inhibition mechanism and Ki) on Nan A; type: biochemical; conditions: for Inhibition type against Nan A: Lineweaver-Burk and Dixon plots; for Ki: nonlinear regression, SigmaPlot Enzyme Kinetics, read-out: Ki against Nan A

T2 sequence (P0C6E9 25-781): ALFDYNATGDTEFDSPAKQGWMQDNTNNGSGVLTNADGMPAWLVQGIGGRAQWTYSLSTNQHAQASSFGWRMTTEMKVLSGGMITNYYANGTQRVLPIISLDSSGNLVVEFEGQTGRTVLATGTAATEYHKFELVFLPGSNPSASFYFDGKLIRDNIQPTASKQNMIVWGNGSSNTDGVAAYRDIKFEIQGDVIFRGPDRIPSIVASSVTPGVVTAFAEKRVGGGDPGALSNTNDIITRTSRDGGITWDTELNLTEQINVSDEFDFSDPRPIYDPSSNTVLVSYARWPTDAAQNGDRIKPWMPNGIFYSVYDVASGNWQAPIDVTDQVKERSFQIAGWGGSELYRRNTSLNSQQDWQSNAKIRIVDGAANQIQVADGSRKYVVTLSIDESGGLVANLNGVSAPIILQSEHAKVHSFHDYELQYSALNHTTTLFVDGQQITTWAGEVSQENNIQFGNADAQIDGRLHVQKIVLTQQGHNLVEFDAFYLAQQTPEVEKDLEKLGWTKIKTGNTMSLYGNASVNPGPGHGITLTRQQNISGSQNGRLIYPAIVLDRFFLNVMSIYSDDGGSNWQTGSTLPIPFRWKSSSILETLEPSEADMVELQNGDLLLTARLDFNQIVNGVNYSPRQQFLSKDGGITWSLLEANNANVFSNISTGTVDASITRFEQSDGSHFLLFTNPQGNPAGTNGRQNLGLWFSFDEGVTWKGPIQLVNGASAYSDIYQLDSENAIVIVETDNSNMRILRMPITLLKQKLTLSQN
T1 sequence (P62575 319-822 limits assumed): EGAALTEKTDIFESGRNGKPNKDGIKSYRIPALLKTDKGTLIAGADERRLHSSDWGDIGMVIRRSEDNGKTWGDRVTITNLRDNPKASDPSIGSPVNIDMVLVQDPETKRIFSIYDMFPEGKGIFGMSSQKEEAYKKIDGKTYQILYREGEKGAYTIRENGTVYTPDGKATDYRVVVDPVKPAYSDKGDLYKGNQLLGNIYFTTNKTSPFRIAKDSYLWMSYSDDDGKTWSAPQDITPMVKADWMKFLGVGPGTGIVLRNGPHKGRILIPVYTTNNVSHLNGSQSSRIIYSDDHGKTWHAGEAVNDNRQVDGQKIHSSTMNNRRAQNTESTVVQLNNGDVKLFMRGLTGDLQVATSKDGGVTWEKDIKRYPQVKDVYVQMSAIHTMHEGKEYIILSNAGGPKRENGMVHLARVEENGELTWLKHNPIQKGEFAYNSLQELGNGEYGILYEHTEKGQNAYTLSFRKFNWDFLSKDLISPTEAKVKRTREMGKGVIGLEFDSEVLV

Row | Compound | IC50 (S. pneumoniae Nan A [1]) [µM] | IC50 [2] [µM] | melting point | fold improvement in Nan A inhibitory activity over curcumin (S. pneumoniae Nan A [1]; IC50 ratio versus curcumin (4a)) [fold] | Inhibition type against Nan A (S. pneumoniae Nan A [3]) | Ki (S. pneumoniae Nan A [3]) [µM]
1 | COc1cc(C=Cc2cc(C=Cc3ccc(O)c(OC)c3)[nH]n2)ccc1O [Compound 8] | 6.2 ± 1.5 | 41.6 ± 18.7 | – | – | – | –
2 | CCOc1cc(/C=C/C(O)=C/C(=O)/C=C/c2ccc(O)c(OC)c2)ccc1O [Compound 5f, 1-(3-Ethoxy-4-hydroxyphenyl)-5-hydroxy-7-(4-hydroxy-3-methoxyphenyl)hepta-1,4,6-trien-3-one] | 1.5 ± 0.8 | 6.7 ± 0.6 | 182 to 183 °C | – | – | –
3 | COc1ccc(/C=C/C(=O)/C=C(O)/C=C/c2ccc(O)c(O)c2)cc1O [Compound 5e, 1-(3,4-Dihydroxyphenyl)-5-hydroxy-7-(3-hydroxy-4-methoxyphenyl)hepta-1,4,6-trien-3-one] | 0.2 ± 0.1 | 4.8 ± 1.5 | 203 to 204 °C | 3.0 | competitive inhibition | 0.14
4 | COc1cc(C=CC(O)=C2CCCC(=Cc3ccc(O)c(OC)c3)C2=O)ccc1O [Compound 4f, 2–(1-Hydroxy-3-(4-hydroxy-3-methoxyphenyl)allylidene)-6-(4-hydroxy-3-methoxybenzylidene)cyclohexan-1-one] | 4.7 ± 0.5 | 24.9 ± 1.8 | 182 to 183 °C | – | – | –
5 | COc1cc(/C=C/C(=O)/C=C(O)/C=C/c2ccc(O)c(OC)c2)ccc1O [Compound 4a, curcumin] | 0.6 ± 0.1 | 5.3 ± 0.7 | – | – | noncompetitive inhibition | 1.3
6 | O=C(C=Cc1ccc(O)c(O)c1)C=C(O)C=Cc1ccc(O)c(O)c1 [Compound 4d, 1,7-bis(3,4-dihydroxyphenyl)-5-hydroxyhepta-1,4,6-trien-3-one] | 1.5 ± 0.7 | 11.9 ± 2 | 300 °C (dec.) | – | – | –
7 | COc1ccc(/C=C/C(O)=C/C(=O)/C=C/c2ccc(OC)c(OC)c2)cc1O [Compound 5b, 7-(3,4-Dimethoxyphenyl)-5-hydroxy-1-(3-hydroxy-4-methoxyphenyl)hepta-1,4,6-trien-3-one] | 0.6 ± 0.1 | 9.2 ± 0.2 | 155 to 158 °C | – | – | –
8 | COc1ccc(C=CC(=O)C=C(O)C=Cc2ccc(OC)c(O)c2)cc1O [Compound 4b, 5-Hydroxy-1,7-bis(3-hydroxy-4-methoxyphenyl)hepta-1,4,6-trien-3-one] | 1 ± 0.4 | 7.6 ± 0.5 | 182 to 183 °C | – | – | –
9 | COc1cc(/C=C/C(=O)/C=C(O)/C=C/c2ccc(Br)cc2)ccc1O [Compound 5m, 1-(4-Bromophenyl)-5-hydroxy-7-(4-hydroxy-3-methoxyphenyl)hepta-1,4,6-trien-3-one] | 1 ± 0.2 | – | 148 to 149 °C | – | – | –
10 | COc1cc(/C=C/C(=O)/C=C(O)/C=C/c2ccc(N(C)C)cc2)ccc1O [Compound 5r, 1-(4-(Dimethylamino)phenyl)-5-hydroxy-7-(4-hydroxy-3-methoxyphenyl)hepta-1,4,6-trien-3-one] | 1.5 ± 0.2 | 1.9 ± 0.2 | – | – | – | –
11 | COc1cc(/C=C/C(=O)/C=C(O)/C=C/c2ccccc2)ccc1O [Compound 5h, 5-Hydroxy-7-(4-hydroxy-3-methoxyphenyl)-1-phenylhepta-1,4,6-trien-3-one] | 7.1 ± 0.1 | – | 135 to 137 °C | – | – | –
12 | COc1cc(/C=C/C(=O)/C=C(O)/C=C/c2ccc(F)cc2)ccc1O [Compound 5l, 1-(4-Fluorophenyl)-5-hydroxy-7-(4-hydroxy-3-methoxyphenyl)hepta-1,4,6-trien-3-one] | 1.8 ± 0.2 | – | 146 to 147 °C | – | – | –
13 | COc1cc(/C=C/C(=O)/C=C(O)/C=C/c2ccc(O)cc2)ccc1O [Compound 5p, 5-Hydroxy-7-(4-hydroxy-3-methoxyphenyl)-1-(4-hydroxyphenyl)hepta-1,4,6-trien-3-one] | 0.6 ± 0.2 | 4.3 ± 0.7 | – | – | – | –
14 | COc1cc(/C=C/C(=O)/C=C(O)/C=C/c2ccc(OC(C)=O)c(OC)c2)ccc1OC(C)=O [Compound 7, 3-Hydroxy-5-oxohepta-1,3,6-triene-1,7-diyl)bis(2-methoxy-4,1-phenylene) diacetate] | 2.6 ± 0.6 | 37.5 ± 3.5 | – | – | – | –
15 | COc1ccc(/C=C/C(=O)/C=C(O)/C=C/c2ccc(OC)c(OC)c2)cc1OC [Compound 4c, 1,7-Bis(3,4-dimethoxyphenyl)-5-hydroxyhepta-1,4,6-trien-3-one] | 3.4 ± 1 | 21.5 ± 7 | – | – | – | –
16 | COc1cc(/C=C/C(=O)/C=C(O)/C=C/c2ccc(N3CCCCC3)cc2)ccc1O [Compound 5s, 5-Hydroxy-7-(4-hydroxy-3-methoxyphenyl)-1-(4-(piperidin-1-yl)phenyl)hepta-1,4,6-trien-3-one] | 1.5 ± 0.1 | – | 204 to 205 °C | – | – | –
17 | COc1ccc(/C=C/C(O)=C/C(=O)/C=C/c2ccc(O)c(OC)c2)cc1O [Compound 5c, 5-Hydroxy-7-(4-hydroxy-3-methoxyphenyl)-1-(3-hydroxy-4-methoxyphenyl)hepta-1,4,6-trien-3-one] | 1 ± 0.4 | 7.7 ± 0.7 | 137 to 140 °C | – | – | –
18 | COc1cc(/C=C/C(=O)/C=C(O)/C=C/c2ccc(C(F)(F)F)cc2)ccc1O [Compound 5k, 5-Hydroxy-7-(4-hydroxy-3-methoxyphenyl)-1-(4-(trifluoromethyl)phenyl)hepta-1,4,6-trien-3-one] | 1 ± 0.1 | – | 158 to 160 °C | – | – | –
19 | O=C(C=Cc1ccc(O)cc1)C=C(O)C=Cc1ccc(O)cc1 [Compound 4e, 5-Hydroxy-1,7-bis(4-hydroxyphenyl)hepta-1,4,6-trien-3-one] | 4 ± 1.2 | 15.1 ± 0.1 | – | – | noncompetitive inhibition | 1.2
20 | COc1cc(/C=C/C(=O)/C=C(O)/C=C/c2ccc([N+](=O)[O-])cc2)ccc1O [Compound 5j, 5-Hydroxy-7-(4-hydroxy-3-methoxyphenyl)-1-(4-nitrophenyl)hepta-1,4,6-trien-3-one] | 0.9 ± 0.3 | 6.9 ± 1.8 | 204 to 205 °C | – | – | –
21 | COc1cc(/C=C/C(O)=C/C(=O)/C=C/c2ccc(OC)c(OC)c2)ccc1O [Compound 5a, 7-(3,4-Dimethoxyphenyl)-5-hydroxy-1-(4-hydroxy-3-methoxyphenyl)hepta-1,4,6-trien-3-one] | 1.5 ± 0.7 | 11.7 ± 0.2 | – | – | – | –
22 | COc1cc(/C=C/C(=O)/C=C(O)/C=C/c2ccc(O)c(O)c2)ccc1O [Compound 5d, 1-(3,4-Dihydroxyphenyl)-5-hydroxy-7-(4-hydroxy-3-methoxyphenyl)hepta-1,4,6-trien-3-one] | 0.7 ± 0.2 | 2.7 ± 0.8 | – | – | – | –
23 | COC(=O)CCCOc1ccc(C=CC(=O)C=C(O)C=Cc2ccc(O)c(OC)c2)cc1OC [Compound 5i, Methyl 4-(4-(5-hydroxy-7–(4-hydroxy-3-methoxyphenyl)-3-oxohepta-1,4,6-trien-1-yl)-2-methoxyphenoxy)-butanoate] | 1 ± 0.5 | 9.5 ± 1.5 | 100 to 101 °C | – | – | –
24 | COc1cc(CCC(=O)/C=C(\O)CCc2ccc(O)c(OC)c2)ccc1O [Compound 6, 1,7-Bis(4-hydroxy-3-methoxyphenyl)heptane-3,5-dione] | 82.1 ± 7.6 | – | – | – | – | –
25 | COc1cc(/C=C/C(=O)/C=C(O)/C=C/c2ccc(N)cc2)ccc1O [Compound 5q, 1-(4-Aminophenyl)-5-hydroxy-7-(4-hydroxy-3-methoxyphenyl)hepta-1,4,6-trien-3-one] | 1.6 ± 0.1 | 2.9 ± 0.9 | 99 to 100 °C | – | noncompetitive inhibition | 0.8
26 | COc1ccc(/C=C/C(O)=C/C(=O)/C=C/c2ccc(O)c(OC)c2)cc1 [Compound 5o, 5-Hydroxy-7-(4-hydroxy-3-methoxyphenyl)-1-(4-methoxyphenyl)hepta-1,4,6-trien-3-one] | 1.2 ± 0.1 | 4.2 ± 0.8 | 143 to 145 °C | – | – | –
27 | COc1cc(/C=C/C(=O)/C=C(O)/C=C/c2ccc(NC(C)=O)cc2)ccc1O [Compound 5n, N-(4–(5-Hydroxy-7–(4-hydroxy-3-methoxyphenyl)-3-oxohepta-1,4,6-trien-1-yl)phenyl)acetamide] | 1.8 ± 0.4 | 6.8 ± 0.8 | 183 to 185 °C | – | – | –
28 | COc1cc(C=CC(O)=CC(=O)C=Cc2cccnc2)ccc1O [Compound 5g, 5-Hydroxy-7-(4-hydroxy-3-methoxyphenyl)-1-(pyridin-3-yl)hepta-1,4,6-trien-3-one] | 4.4 ± 0.1 | 43.6 ± 0.1 | 185 °C (dec.) | – | – | –
